This note sets out measurements from patent publication US20240400591A1 (Jacobio Pharmaceuticals Co., Ltd., priority 2021, published 2024).

As a reminder, the EC50 is the midpoint of the concentration-response curve. The low end stands for a more potent agent, the high end for a less potent agent.

This test has as its target T1, His-p53 Y220C (94-294) protein (Homo sapiens, UniProt P04637, Y220C).
T1 construct: His-p53 Y220C (94-294) protein
Put plainly: In vitro DNA binding assay (HTRF). Type of test: biochemical. As to conditions: % activation normalized to 2 μM Ref-1a high control. A general note: Time-resolved FRET reads energy transfer from a long-lived donor to a nearby acceptor.

On to `CN1CC[C@H](Nc2cccc3c(CC(F)(F)F)c(C#CCNc4ccc(P(C)(C)=O)cc4OC(F)(F)F)sc23)[C@H](F)C1` [Example 137, (4-((3-(7-(((3R,4S)-3-fluoro-1-methylpiperidin-4-yl)amino)-3-(2,2,2-trifluoroethyl)benzo[b]thiophen-2-yl)prop-2-yn-1-yl)amino)-3-(trifluoromethoxy)phenyl)dimethylphosphine oxide], for which the EC50 amounted to 78 nM. This counts as double-digit nanomolar.

`COc1cc(P(=O)(C2CC2)C2CC2)ccc1NCC#Cc1sc2c(N[C@H]3CCN(C)C[C@H]3F)cccc2c1CC(F)(F)F` [Example 140, dicyclopropyl(4-((3-(7-(((3R,4S)-3-fluoro-1-methylpiperidin-4-yl)amino)-3-(2,2,2-trifluoroethyl)benzo[b]thiophen-2-yl)prop-2-yn-1-yl)amino)-3-methoxyphenyl)phosphine oxide] yielded an EC50 of 129 nM. Compared with the last molecule, the EC50 is about 1.7-fold higher.

As to `COc1cc(P(C)(C)=O)ccc1NCC#Cc1sc2c(N[C@H]3CCN(C)C[C@H]3Cl)cccc2c1CC(F)(F)F` [Example 144, (3R,4S)-3-chloro-N-[2-[3-(4-dimethylphosphoryl-2-methoxy-anilino)prop-1-ynyl]-3-(2,2,2-trifluoroethyl)benzothiophen-7-yl]-1-methyl-piperidin-4-amine], the EC50 is 102 nM.

With `COc1cc(NCC#Cc2sc3c(NC4CCN(C)CC4F)cccc3c2CC(F)(F)F)ccc1P(C)(C)=O` (stereo not shown) [Example 151, (4-((3-(7-(((Z)-3-fluoro-1-methylpiperidin-4-yl)amino)-3-(2,2,2-trifluoroethyl)benzo[b]thiophen-2-yl)prop-2-yn-1-yl)amino)-2-methoxyphenyl)dimethylphosphine oxide], the EC50 was 60 nM.

`CCP(=O)(CC)c1ccc(NCC#Cc2sc3c(NC4CCN(C5CCOCC5)CC4)cccc3c2CC(F)(F)F)c(OC)c1` [Example 155, diethyl(3-methoxy-4-((3-(7-((1-(tetrahydro-2H-pyran-4-yl)piperidin-4-yl)amino)-3-(2,2,2-trifluoroethyl)benzo[b]thiophen-2-yl)prop-2-yn-1-yl)amino)phenyl)phosphine oxide] gave an EC50 of 147 nM.

`CCP(=O)(CC)c1ccc(NCC#Cc2sc3c(N[C@@H]4CCN(C5CCOCC5)C[C@@H]4F)cccc3c2CC(F)(F)F)c(OC)c1` [Example 156, diethyl(4-((3-(7-(((3S,4R)-3-fluoro-1-(tetrahydro-2H-pyran-4-yl)piperidin-4-yl)amino)-3-(2,2,2-trifluoroethyl)benzo[b]thiophen-2-yl)prop-2-yn-1-yl)amino)-3-methoxyphenyl)phosphine oxide] returned an EC50 of 108 nM. This EC50 and that of the molecule before are within 1.5-fold of each other.

In the case of `CN1CC[C@@H](Nc2cccc3c(CC(F)(F)F)c(C#CCNc4ccc(P(C)(C)=O)c5c4OC(F)(F)O5)sc23)[C@@H](F)C1` [Example 164, (2,2-difluoro-7-((3-(7-(((3S,4R)-3-fluoro-1-methylpiperidin-4-yl)amino)-3-(2,2,2-trifluoroethyl)benzo[b]thiophen-2-yl)prop-2-yn-1-yl)amino)benzo[d][1,3]dioxol-4-yl)dimethylphosphine oxide], a half-maximal effect (EC50) was put at 120 nM.

`CN1CC[C@@H](Nc2cccc3c(CC(F)(F)F)c(C#CCNc4ccc(S(C)(=O)=O)cc4P(C)(C)=O)sc23)[C@@H](F)C1` [Example 171, (2-((3-(7-(((3S,4R)-3-fluoro-1-methylpiperidin-4-yl)amino)-3-(2,2,2-trifluoroethyl)benzo[b]thiophen-2-yl)prop-2-yn-1-yl)amino)-5-(methylsulfonyl)phenyl)dimethylphosphine oxide] displayed an EC50 of 178 nM.

Regarding `COc1nc(P(C)(C)=O)ccc1NCC#Cc1sc2c(N[C@@H]3CCN(C4CCOCC4)C[C@@H]3F)cccc2c1CC(F)(F)F` [Example 179, (5-((3-(7-(((3S,4R)-3-fluoro-1-(tetrahydro-2H-pyran-4-yl)piperidin-4-yl)amino)-3-(2,2,2-trifluoroethyl)benzo[b]thiophen-2-yl)prop-2-yn-1-yl)amino)-6-methoxypyridin-2-yl)dimethylphosphine oxide], the EC50 was determined as 134 nM.

`COc1cc(P(C)(C)=O)ccc1NCC#Cc1sc2c(N[C@@H]3CCN(C4CC(C)(C)OC(C)(C)C4)C[C@@H]3F)cccc2c1CC(F)(F)F` [Example 181, (4-((3-(7-(((3S,4R)-3-fluoro-1-(2,2,6,6-tetramethyltetrahydro-2H-pyran-4-yl)piperidin-4-yl)amino)-3-(2,2,2-trifluoroethyl)benzo[b]thiophen-2-yl)prop-2-yn-1-yl)amino)-3-methoxyphenyl)dimethylphosphine oxide]: the EC50 was determined as 96 nM. This EC50 and that of the molecule before are within 1.5-fold of each other.

Consider `CN1CC[C@@H](Nc2cccc3c(CC(F)(F)F)c(C#CCNc4cc(P(C)(C)=O)n[nH]4)sc23)[C@@H](F)C1` [Example 204, (5-((3-(7-(((3S,4R)-3-fluoro-1-methylpiperidin-4-yl)amino)-3-(2,2,2-trifluoroethyl)benzo[b]thiophen-2-yl)prop-2-yn-1-yl)amino)-1H-pyrazol-3-yl)dimethylphosphine oxide], for which the EC50 stood at 816 nM.

The molecule `COc1cc(P(C)(C)=O)cc(F)c1NCC#Cc1sc2c(N[C@@H]3CCN(C)C[C@@H]3F)cccc2c1CC(F)(F)F` [Example 206, (3-fluoro-4-((3-(7-(((3S,4R)-3-fluoro-1-methylpiperidin-4-yl)amino)-3-(2,2,2-trifluoroethyl)benzo[b]thiophen-2-yl)prop-2-yn-1-yl)amino)-5-methoxyphenyl)dimethylphosphine oxide] displayed an EC50 of 205 nM.

`COc1cc(P(C)(C)=O)cnc1NCC#Cc1sc2c(N[C@@H]3CCN(C)C[C@@H]3F)cccc2c1CC(F)(F)F` [Example 207, (6-((3-(7-(((3S,4R)-3-fluoro-1-methylpiperidin-4-yl)amino)-3-(2,2,2-trifluoroethyl)benzo[b]thiophen-2-yl)prop-2-yn-1-yl)amino)-5-methoxypyridin-3-yl)dimethylphosphine oxide]: the EC50 amounted to 126 nM.

`COc1nc(P(C)(C)=O)cnc1NCC#Cc1sc2c(N[C@@H]3CCN(C)C[C@@H]3F)cccc2c1CC(F)(F)F` [Example 209, (5-((3-(7-(((3S,4R)-3-fluoro-1-methylpiperidin-4-yl)amino)-3-(2,2,2-trifluoroethyl)benzo[b]thiophen-2-yl)prop-2-yn-1-yl)amino)-6-methoxypyrazin-2-yl)dimethylphosphine oxide]: the EC50 was 211 nM. This EC50 is about 1.7-fold higher than that of the molecule before.

With `CSc1c(NCC#Cc2sc3c(N[C@@H]4CCN(C)C[C@@H]4F)cccc3c2CC(F)(F)F)ccc(P(C)(C)=O)c1F` [Example 221, (2-fluoro-4-((3-(7-(((3S,4R)-3-fluoro-1-methylpiperidin-4-yl)amino)-3-(2,2,2-trifluoroethyl)benzo[b]thiophen-2-yl)prop-2-yn-1-yl)amino)-3-(methylthio)phenyl)dimethylphosphine oxide], the EC50 turned out to be 169 nM.

Take `CN1CC[C@@H](Nc2cccc3c(CC(F)(F)F)c(C#CCNc4ccc(P(C)(C)=O)nc4C#N)sc23)[C@@H](F)C1` [Example 224, 6-(dimethylphosphoryl)-3-((3-(7-(((3S,4R)-3-fluoro-1-methylpiperidin-4-yl)amino)-3-(2,2,2-trifluoroethyl)benzo[b]thiophen-2-yl)prop-2-yn-1-yl)amino)picolinonitrile]: the EC50 turned out to be 87 nM.
